# Test results published in US12055549B2, “Methods of use of anti-TNFα antibodies” (UCB Biopharma SRL, priority 2015, dated 2024).
# Molecular target: TNFα (Homo sapiens, UniProt P01375)
# Assay: SPR on Biacore 4000, immobilised soluble TNFα
# Format: binding
# Details: concentration of up to 100 μM
# Method: In another experiment, BIO8898 was tested against the immobilised soluble form of CD40L and the soluble form of TNFα by SPR on a Biacore 4000 machine.
# TNFα, sequence (P01375 77-233 limits assumed): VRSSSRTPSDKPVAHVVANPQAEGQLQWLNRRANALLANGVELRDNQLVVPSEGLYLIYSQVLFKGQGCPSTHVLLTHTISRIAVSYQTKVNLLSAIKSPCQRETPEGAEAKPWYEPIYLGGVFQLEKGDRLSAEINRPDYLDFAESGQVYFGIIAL
smiles,measurement,value
O=C(NCc1cccc(-c2ccccc2)c1)c1cc(-c2cc(C(=O)NC(C(=O)O)C3CCCCC3)nc(C(=O)N3CCCC3CN3CCCC3)c2)cc(C(=O)N2CCCC2CN2CCCC2)n1 (stereo not shown) [BIO8898],binding to TNFα,found not to bind to TNFα
